Series [1] relates to human fibroblast like synoviocytes (HFLS). The series can be described thus: In vitro cytotoxicity (WST-1 cell viability) in HFLS. The series is classed as cell-based. Conditions: 24 h, tested 3-100 µM. On the procedure:
Hip synovial membrane was collected from three male adult patients with clinical osteoarthritis (OA) at the time of hip replacement surgery. This protocol was conducted under the approval of the local Ethics Committee (CCER, Geneva, Switzerland) (Authorization #2017-02234) and with informed and consenting patients. Once collected, tissue samples were processed, according to previously described protocols. Briefly, samples were finely minced and digested for 3 h (37 °C, 5% CO2 incubation) in a 3 mg/mL collagenase IX-RPMI 1640 solution. After centrifugation (200× g) and supernatant removal, the resuspended pellet was cultured (37 °C, 5% CO2) in medium containing RPMI 1640, M199 (1:1), 1% penicillin/streptomycin (100 IU/mL:100 µg/mL), 2 mM L-glutamine and 20% fetal bovine serum. After overnight culture, non-adherent cells were removed. At confluence, cells were trypsinized and passaged to 75 cm^2 culture flasks (Corning, NY, USA) in complete medium containing 10% fetal bovine serum. A double control was performed to confirm presence of HFLS after isolation: visual morphology evaluation (Figure S3) and flow cytometry with synoviocyte specific surface markers ([…] and VCAM-1). […] All cellular assays were performed from passage 3 to 9. Experiments were conducted twice per donor (n = 6).
Confluent HFLS cells (25,000 cells/well) were treated in a 96-well plate with compounds 1, 2, and 3 (3 µM, 6 µM, 12 µM, 25 µM, 50 µM, and 100 µM), HEAB and DCMAB (increasing concentrations from 3 to 100 µg/mL), or control vehicle for 1 h. All tested compounds were dissolved in a dimethyl sulfoxide (DMSO) stock solution and further diluted in culture medium. Final concentration of DMSO in vehicle of tested concentrations was 0.01%. After 1 h incubation, cells were activated by addition of IL-1β (1 µg/mL) (R&D Systems, Bio-Techne, Abingdon, UK) with subsequent incubation for 23 h. All supernatants were kept at −80 °C, before further testing. […] Pro-inflammatory cytokine IL-6 release in cell supernatant was assessed by ELISA. […]

The subject of series [2] is IL-6 release from IL-1β activated HFLS. The series can be described thus: IL-6 release by ELISA in IL-1β activated human fibroblast-like synoviocytes. Format: cell-based. To be noted: for inhibition at 25 µM: compounds at 25 µM = 13 µg/mL, read-out: Inhibition of IL-6 release at highest non-toxic concentration (%); for IC50: isolated compounds; for Fold higher activity (IC50) compared to compound 1 / DCMAB: IC50 comparison. On the procedure:
Hip synovial membrane was collected from three male adult patients with clinical osteoarthritis (OA) at the time of hip replacement surgery. […] Once collected, tissue samples were processed, according to previously described protocols. […] After overnight culture, non-adherent cells were removed. At confluence, cells were trypsinized and passaged to 75 cm^2 culture flasks (Corning, NY, USA) in complete medium containing 10% fetal bovine serum. […] All cellular assays were performed from passage 3 to 9. Experiments were conducted twice per donor (n = 6).
All tested compounds were dissolved in a dimethyl sulfoxide (DMSO) stock solution and further diluted in culture medium. Final concentration of DMSO in vehicle of tested concentrations was 0.01%. After 1 h incubation, cells were activated by addition of IL-1β (1 µg/mL) (R&D Systems, Bio-Techne, Abingdon, UK) with subsequent incubation for 23 h. All supernatants were kept at −80 °C, before further testing. Remaining adherent cells were tested for viability using the cell proliferation reagent WST-1 (Roche, Basel, Switzerland), according to the supplier instructions. Pro-inflammatory cytokine IL-6 release in cell supernatant was assessed by ELISA. […] All samples were diluted 90 times. Experiments were conducted twice per donor (n = 6).
In this study, data are presented as mean values ± standard deviation (S.D.). All analyses were performed using GraphPad Prism 8.3 software. IC50 values were determined using a nonlinear fitting of a log (inhibitor concentration) vs response variable slope for each donor’s data set. Consequent values were then averaged. After confirming the data normal distribution and homogeneity of variances (Brown-Forsythe and Welch; Shapiro-Wilk, D’Agostino-Pearson and Anderson-Darling), statistical analysis was performed using a two-way ANOVA with a Bonferroni multiple comparisons test. Significance was determined at alpha level 0.05. Significance values represented are * p < 0.05, ** p < 0.009 and ns for non-significance.

[3] abbreviates: Homo sapiens, IL-1β activated HFLS, 24 h.
[4] abbreviates: Homo sapiens, IL-1β activated HFLS, 24 h, n = 6.
Setting [5] is: Homo sapiens, µM values transformed into µg/mL.

Turning to `COc1cc(O)cc2c1C(C=Cc1ccccc1)C1C(c3ccccc3)Oc3cc(O)cc(OC)c3C1O2` (stereo not drawn) [Compound 3, brachydin C], in series [1], the “Concentration at which cytotoxicity / loss of viability occurs” value is listed as 50 µM. The inhibition at 25 µM in series [2] (setting [3]) stood at 94 ± 5%. For the same compound, the IC50 in series [2] (setting [4]) stood at 19 ± 3 µM; in series [2] (setting [5]), 10 ± 3 µg/mL. The “Fold higher activity (IC50) compared to compound 1 / DCMAB” value in series [2] worked out at 3 fold.

Take `COc1ccc(C=CC2c3c(OC)cc(O)cc3OC3c4c(OC)cc(O)cc4OC(c4ccccc4)C23)cc1` (stereo not drawn) [Compound 2, brachydin B]: the “Concentration at which cytotoxicity / loss of viability occurs” value in series [1] was 50 µM. For the same compound, the inhibition at 25 µM in series [2] (setting [3]) is 80 ± 9%. Moreover, the IC50 in series [2] (setting [4]) was 17 ± 3 µM; in series [2] (setting [5]), 9 ± 3 µg/mL. Further, the “Fold higher activity (IC50) compared to compound 1 / DCMAB” value in series [2] is listed as 3 fold.

`COc1cc(O)cc2c1C(C=Cc1ccc(O)cc1)C1C(c3ccccc3)Oc3cc(O)cc(OC)c3C1O2` (stereo not drawn) [Compound 1, brachydin A]: the “Concentration at which cytotoxicity / loss of viability occurs” value in series [1] is 100 µM. Besides, the inhibition at 50 µM in series [2] (Homo sapiens, 50 µM, non-significant) came out at 24%. Besides, the inhibition at 25 µM in series [2] (setting [3]) is 10 ± 11%. In addition, the IC50 in series [2] (setting [4]) is 62 ± 2 µM; in series [2] (setting [5]), 33 ± 2 µg/mL.

The IC50 is the concentration at which inhibition is half-maximal. Read a high IC50 as lower potency.

Values taken from publication PMC7665123, “In Vitro Anti-Inflammatory Activity in Arthritic Synoviocytes of A. brachypoda Root Extracts and Its Unusual Dimeric Flavonoids” (Molecules, 2020).
